This is an account of results in publication PMC12227560, “Total synthesis of a sorrentanone ester library and evaluation of its antimicrobial potential” (Scientific Reports, 2025).

In brackets after ≈: the same amount, converted by molar mass.

The test system of data set [1] is B. subtilis ATCC6633. In words: Antimicrobial broth micro-dilution assay (MIC). As to conditions: Bacillus subtilis; B. subtilis ATCC6633; 24 h at 37 °C; highest tested concentration 250 µg/mL; read-out: Minimum inhibitory concentration (MIC). The data set is classed as cell-based. Summed up: (§1)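 Compounds dissolved in DMSO (50 mg/mL stock), serially diluted in broth from 250 µg/mL. Wells inoculated (Candida […], bacteria 5x10^5 CFU/mL), incubated 24 h at 37 °C. Lowest growth-inhibiting concentration taken as MIC.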
A general note: In broth dilution the organism is exposed to a series of concentrations in liquid medium.

In data set [2] the test system is C. albicans ATCC10231. The data set can be described thus: Antimicrobial broth micro-dilution assay (MIC). As to conditions: Candida albicans; C. albicans ATCC10231; 24 h at 37 °C; highest tested concentration 250 µg/mL; read-out: Minimum inhibitory concentration (MIC). The data set is classed as cell-based. Summed up: as §1
The subject of data set [3] is E. coli NCTC9001. In words: Antimicrobial broth micro-dilution assay (MIC). As to conditions: Escherichia coli; E. coli NCTC9001; 24 h at 37 °C; highest tested concentration 250 µg/mL; read-out: Minimum inhibitory concentration (MIC). The data set is classed as cell-based. Summed up: as §1
The subject of data set [4] is S. aureus ATCC25923. In words: Antimicrobial broth micro-dilution assay (MIC). Type of data set: cell-based. As to conditions: Staphylococcus aureus; S. aureus ATCC25923; 24 h at 37 °C; highest tested concentration 250 µg/mL; read-out: Minimum inhibitory concentration (MIC). Summed up: as §1
Data set [5] has as its system Caenorhabditis elegans. In words: In vivo toxicity C. elegans survival assay. Conditions: for survival rate: C. elegans, 50 µg/mL (highest tested concentration), 48 h. The procedure:
3. Bioactivity and Toxicity Assays […]
Compounds were dissolved in DMSO at a concentration of 50 mg/mL, and the highest tested concentration was 250 µg/mL. […]
In vivo toxicity C. elegans assay: The C. elegans survival assay was carried out as described previously with some modifications. 8 In brief, synchronized worms (L4 stage) were suspended in a medium containing 95% M9 buffer (3.0 g of KH2PO4, 6.0 g of Na2HPO4, 5.0 g of NaCl, and 1 mL of 1 M MgSO4 × 7H2O in 1 L of water), 5% LB (Luria-Bertani) broth (Oxoid, Basingstoke, UK), and 10 μg of cholesterol (Sigma -Aldrich, Munich, Germany) per mL. The experiment was carried out in 96 -well flat -bottomed microtiter plates (Sarstedt, Nümbrecht, Germany) in the final volume of 100 μL per wel l. 25 μL of this suspension of nematodes (25 –35 nematodes) were transferred to the wells of a 96 -well microtiter plate, where 50 μL of the medium was previously added. Next, 25 μL of a solvent control (DMSO) or 25 μL of a concentrated solution was added to the test wells. The final concentrations of the compounds were 50, 25, 10, and 5 µg/mL. Subsequently, the plates were incubated at 25 °C for 2 days. The fraction of dead worms was determined after 48 h by counting the number of dead worms and the total number of worms in each well, using a stereomicroscope (SMZ143-N2GG, Motic, Germany).
As a negative control experiment, nematodes were exposed to the medium containing 1% […]
Ergosterol biosynthesis assay: Ergosterol levels were measured according to the published procedure with some minor modifications. 10 Briefly, a sing le C. albicans colony from an overnight Sabouraud dextrose agar plate was used to inoculate 50 ml of Sabouraud dextrose broth containing 0.5 MIC concentrated compounds. Incubation was performed for 18 h at 37 °C on the rotary shaker at 180 rpm. Cells were harvested by centrifugation at 3000 rpm for 5 min and washed once with sterile distilled water. The net wet weight of the cell pellet was determined. Three milliliters of 25% alcoholic potassium hydroxide solution (25 g of KOH and 35 ml of sterile distill ed water, brought to 100 ml with 100% ethanol), was added to each pellet and vortex mixed for 1 min and incubated in an 85 °C water bath for 1 h. Tubes were cooled to room temperature and extraction of sterols was done with the addition of a mixture of 1 ml of sterile distilled water and 3 ml of n-heptane followed by vigorous vortex mixing for 3 min. The heptane layer was used for spectrophotometrically measuring ergosterol concentrations by scanning absorbance between 240 nm and 300 nm using Ultrospec 3300pro 573 (Amer sham Biosciences, Amersham, UK).

For the compound `CC1=C(O)C(=O)C(C)=C(C(=O)OCCCC(C)C)C1=O` [compound 36], the MIC in data set [1] was 31.2 µg/mL (≈ 111 µM); in data set [2], 62.5 µg/mL (≈ 223 µM); in data set [3], over 250 µg/mL; in data set [4] it was 15.6 µg/mL (≈ 55.7 µM). Moreover, the “in vivo toxicity (in words)” value in data set [5] (C. elegans model) is listed as “comparatively lower in vivo toxicity”. Besides, the survival rate result in data set [5] is “over 90%”.
As to `CC1=C(O)C(=O)C(C)=C(C(=O)OCc2ccccc2)C1=O` [compound 41], the MIC in data set [1] was 15.6 µg/mL (≈ 54.5 µM); in data set [2], 62.5 µg/mL (≈ 218 µM); in data set [3], over 250 µg/mL; in data set [4] it was 31.2 µg/mL (≈ 109 µM). In addition, in data set [5], the survival rate result is recorded as “over 90%”.
